The values below come from patent US7488733B2, “6-arylamino-5-cyano-4-pyrimidinones as pde9a inhibitors” (Boehringer Ingelheim International GmbH, priority 2003, dated 2009).

The target in test [1] is T1, PDE9A (Homo sapiens, UniProt O76083). The test can be described thus: PDE9A inhibition (scintillation proximity assay). In kind it is biochemical. Further details: made in house; host or cells: Sf9 insect cells, pFASTBAC baculovirus. The settings on record: recombinant PDE9A, Table 2; read-out: PDE9A-inhibiting effect IC50. The procedure:
The test substances are dissolved in 100% DMSO and serially diluted to determine their in vitro effect on PDE 9A. […] 2 μL portions of the diluted substance solutions are introduced into the wells of microtiter plates (Isoplate; Wallac Inc., Atlanta, Ga.). Then 50 μL of a dilution of the PDE9A preparation described above are added. The dilution of the PDE9A preparation is chosen so that less than 70% of the substrate is converted during the subsequent incubation (typical dilution: 1:10 000; dilution buffer: 50 mM Tris/HCl pH 7.5, 8.3 mM MgCl2, 1.7 mM EDTA, 0.2% BSA). The substrate, [8-^3H] guanosine 3′,5′-cyclic phosphate (1 μCi/μL; Amersham Pharmacia Biotech., Piscataway, N.J.) is diluted 1:2000 with assay buffer (50 mM Tris/HCl pH 7.5, 8.3 mM MgCl2, 1.7 mM EDTA) to a concentration of 0.0005 μCi/μL. The enzyme reaction is finally started by adding 50 μL (0.025 μCi) of the diluted substrate. […] Immediately thereafter, 25 μL of a suspension containing 18 mg/mL Yttrium Scintillation Proximity Beads (Amersham Pharmacia Biotech., Piscataway, N.J.) are added. The microtiter plates are sealed with a film and left to stand at room temperature for 60 min. The plates are then measured for 30 s per well in a Microbeta scintillation counter (Wallac Inc., Atlanta, Ga.). IC50 values are determined from the graphical plot of the substance concentration versus the percentage inhibition.

Test [2] addresses T2, PDE5A (Homo sapiens, UniProt O76074).
T2 construct: made in house; host or cells: Sf9 insect cells, pFASTBAC baculovirus
The test can be described thus: PDE5A inhibition. Type of test: biochemical. The settings on record: human isoenzyme. The source says: (§1) Recombinant PDE1C (GenBank/EMBL Accession Number: NM_005020, Loughney et al. J. Biol. Chem. 1996 271, 796-806), PDE2A (GenBank/EMBL Accession Number: NM_002599, Rosman et al. Gene 1997 191, 89-95), PDE3B (GenBank/EMBL Accession Number: NM_000922, Miki et al. Genomics 1996, 36, 476-485), PDE4B (GenBank/EMBL Accession Number: NM_002600, Obernolte et al. Gene. 1993, 129, 239-247), PDE5A (GenBank/EMBL Accession Number: NM_001083, Loughney et al. Gene 1998, 216, 139-147), PDE7B (GenBank/EMBL Accession Number: NM_018945, Hetman et al. Proc. Natl. Acad. Sci. U.S.A. 2000, 97, 472-476), PDE8A (GenBank/EMBL Accession Number: AF—056490, Fisher et al. Biochem. Biophys. Res. Commun. […]
(§2) The test substances are dissolved in 100% DMSO and serially diluted to determine their in vitro effect on PDE 9A. […] The plates are then measured for 30 s per well in a Microbeta scintillation counter (Wallac Inc., Atlanta, Ga.). IC50 values are determined from the graphical plot of the substance concentration versus the percentage inhibition.
(§3) The in vitro effect of test substances on recombinant PDE3B, PDE4B, PDE7B, PDE8A, PDE10A and PDE11A is determined in accordance with the assay protocol described above for PDE 9A with the following adaptations: [5′,8-^3H] adenosine 3′,5′-cyclic phosphate (1 μCi/μL; Amersham Pharmacia Biotech., Piscataway, N.J.) is used as substrate. […]

Test [3] has as its target PDE4B (Homo sapiens, UniProt Q07343). As to the kind of experiment: PDE4B inhibition. Type of test: biochemical. The settings on record: human isoenzyme.
Source text: as §1, §2, §3

For test [4], the target named is T3, PDE8A (Homo sapiens, UniProt O60658).
T3 construct: made in house; host or cells: Sf9 insect cells, pFASTBAC baculovirus
As to the kind of experiment: PDE8A inhibition. In kind it is biochemical. The settings on record: human isoenzyme.
Source text: as §1, §2, §3

Test [5] addresses T4, PDE1C (Homo sapiens, UniProt Q14123).
T4 construct: made in house; host or cells: Sf9 insect cells, pFASTBAC baculovirus
The test can be described thus: PDE1C inhibition. In kind it is biochemical. The settings on record: human isoenzyme.
Source text: as §1, §2, §3

Test [6] concerns the target T5, PDE3B (Homo sapiens, UniProt Q13370).
T5 construct: made in house; host or cells: Sf9 insect cells, pFASTBAC baculovirus
The test can be described thus: PDE3B inhibition. The settings on record: human isoenzyme. Type of test: biochemical.
Source text: as §1, §2, §3

Test [7] deals with T6, PDE2A (Homo sapiens, UniProt O00408).
T6 construct: made in house; host or cells: Sf9 insect cells, pFASTBAC baculovirus
The test can be described thus: PDE2A inhibition. Type of test: biochemical. The settings on record: human isoenzyme.
Source text: as §1, §2, §3

Test [8] has as its target T7, PDE10A (Homo sapiens, UniProt Q9Y233).
T7 construct: made in house; host or cells: Sf9 insect cells, pFASTBAC baculovirus
As to the kind of experiment: PDE10A inhibition. In kind it is biochemical. The settings on record: human isoenzyme.
Source text: as §1, §2, §3

Test [9] addresses T8, PDE7A (Homo sapiens, UniProt Q9NP56).
T8 construct: made in house; host or cells: Sf9 insect cells, pFASTBAC baculovirus
As to the kind of experiment: PDE7A inhibition. In kind it is biochemical. The settings on record: human isoenzyme.

Test [10] deals with T9, Murine PDE9A (Mus musculus, UniProt O70628).
T9 sequence (O70628 1-534): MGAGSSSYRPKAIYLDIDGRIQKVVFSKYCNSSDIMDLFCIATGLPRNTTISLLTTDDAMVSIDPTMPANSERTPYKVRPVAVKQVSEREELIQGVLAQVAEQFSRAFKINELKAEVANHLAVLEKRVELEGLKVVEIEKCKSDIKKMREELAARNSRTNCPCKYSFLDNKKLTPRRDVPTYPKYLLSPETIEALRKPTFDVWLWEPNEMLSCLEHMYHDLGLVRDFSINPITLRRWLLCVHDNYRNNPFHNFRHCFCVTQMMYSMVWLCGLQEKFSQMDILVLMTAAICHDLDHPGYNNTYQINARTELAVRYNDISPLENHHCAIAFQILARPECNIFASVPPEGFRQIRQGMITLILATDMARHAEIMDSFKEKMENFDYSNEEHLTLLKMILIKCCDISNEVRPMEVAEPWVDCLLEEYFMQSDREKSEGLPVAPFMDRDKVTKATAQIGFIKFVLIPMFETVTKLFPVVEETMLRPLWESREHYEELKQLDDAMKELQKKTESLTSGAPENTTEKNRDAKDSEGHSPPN
The settings on record: concentrations below 200 μM; cited from earlier work.

The target of test [11] is T1, PDE9A. The settings on record: concentrations of up to 100 μM; cited from earlier work.

Some results are limits rather than exact numbers.

T1 sequence (O76083 whole entry): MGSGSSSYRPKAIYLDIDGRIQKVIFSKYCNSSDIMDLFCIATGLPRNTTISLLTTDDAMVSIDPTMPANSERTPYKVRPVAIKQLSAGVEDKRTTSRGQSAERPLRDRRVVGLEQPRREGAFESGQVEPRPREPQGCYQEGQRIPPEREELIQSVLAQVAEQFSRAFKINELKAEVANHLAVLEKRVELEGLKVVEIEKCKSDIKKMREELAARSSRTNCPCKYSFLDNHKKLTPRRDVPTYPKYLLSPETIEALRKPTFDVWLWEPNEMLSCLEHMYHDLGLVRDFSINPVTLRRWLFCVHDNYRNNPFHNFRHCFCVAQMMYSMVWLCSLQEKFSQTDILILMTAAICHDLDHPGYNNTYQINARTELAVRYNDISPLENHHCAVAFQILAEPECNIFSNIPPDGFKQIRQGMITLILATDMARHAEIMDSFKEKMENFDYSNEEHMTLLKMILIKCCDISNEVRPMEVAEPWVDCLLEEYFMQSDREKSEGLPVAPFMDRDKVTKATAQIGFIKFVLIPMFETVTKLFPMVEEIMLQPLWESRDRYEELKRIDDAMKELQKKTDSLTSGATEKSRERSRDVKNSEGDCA
T3 sequence (O60658 117-829 limits assumed): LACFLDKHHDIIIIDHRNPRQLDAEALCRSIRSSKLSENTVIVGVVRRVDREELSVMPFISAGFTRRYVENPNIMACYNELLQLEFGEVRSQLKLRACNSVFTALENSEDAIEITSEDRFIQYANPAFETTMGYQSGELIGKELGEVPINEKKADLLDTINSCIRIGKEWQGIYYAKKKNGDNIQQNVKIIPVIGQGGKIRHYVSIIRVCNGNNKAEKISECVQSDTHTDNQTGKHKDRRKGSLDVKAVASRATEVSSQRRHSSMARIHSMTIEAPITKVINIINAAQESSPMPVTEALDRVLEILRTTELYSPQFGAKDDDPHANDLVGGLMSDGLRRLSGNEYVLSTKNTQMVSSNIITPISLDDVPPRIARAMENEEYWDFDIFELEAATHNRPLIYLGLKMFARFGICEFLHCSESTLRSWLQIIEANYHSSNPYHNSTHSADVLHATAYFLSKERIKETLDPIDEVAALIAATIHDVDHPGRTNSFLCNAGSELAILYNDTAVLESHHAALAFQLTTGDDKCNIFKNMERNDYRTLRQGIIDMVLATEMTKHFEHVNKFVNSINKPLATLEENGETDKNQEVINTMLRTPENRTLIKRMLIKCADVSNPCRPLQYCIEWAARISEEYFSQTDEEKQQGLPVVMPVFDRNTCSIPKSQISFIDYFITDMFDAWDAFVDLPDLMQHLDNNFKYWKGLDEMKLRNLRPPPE
T6 sequence (O00408 whole entry): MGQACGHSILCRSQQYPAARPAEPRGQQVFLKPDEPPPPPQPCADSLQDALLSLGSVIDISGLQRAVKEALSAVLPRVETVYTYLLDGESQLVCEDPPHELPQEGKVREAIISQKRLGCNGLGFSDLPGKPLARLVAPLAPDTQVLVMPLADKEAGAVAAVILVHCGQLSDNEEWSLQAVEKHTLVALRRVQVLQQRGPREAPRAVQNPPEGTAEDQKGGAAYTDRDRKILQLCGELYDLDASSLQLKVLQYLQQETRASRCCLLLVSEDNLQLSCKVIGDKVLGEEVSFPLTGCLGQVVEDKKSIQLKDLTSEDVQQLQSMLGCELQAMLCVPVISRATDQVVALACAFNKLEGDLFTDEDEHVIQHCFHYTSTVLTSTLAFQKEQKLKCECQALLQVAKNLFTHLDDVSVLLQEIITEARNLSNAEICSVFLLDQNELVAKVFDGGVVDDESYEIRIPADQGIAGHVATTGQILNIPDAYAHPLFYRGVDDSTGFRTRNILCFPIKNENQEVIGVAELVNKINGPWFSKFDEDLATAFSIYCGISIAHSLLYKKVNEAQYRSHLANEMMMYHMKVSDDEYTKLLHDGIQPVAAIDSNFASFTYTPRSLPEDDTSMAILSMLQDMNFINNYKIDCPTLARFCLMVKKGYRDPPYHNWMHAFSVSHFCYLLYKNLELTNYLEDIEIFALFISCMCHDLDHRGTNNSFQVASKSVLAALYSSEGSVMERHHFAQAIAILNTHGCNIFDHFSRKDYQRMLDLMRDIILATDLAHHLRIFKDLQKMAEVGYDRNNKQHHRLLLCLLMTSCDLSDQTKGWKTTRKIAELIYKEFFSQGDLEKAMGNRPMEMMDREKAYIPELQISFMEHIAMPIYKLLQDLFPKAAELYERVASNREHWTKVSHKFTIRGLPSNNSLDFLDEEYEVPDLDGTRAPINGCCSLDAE
T5 sequence (Q13370 whole entry): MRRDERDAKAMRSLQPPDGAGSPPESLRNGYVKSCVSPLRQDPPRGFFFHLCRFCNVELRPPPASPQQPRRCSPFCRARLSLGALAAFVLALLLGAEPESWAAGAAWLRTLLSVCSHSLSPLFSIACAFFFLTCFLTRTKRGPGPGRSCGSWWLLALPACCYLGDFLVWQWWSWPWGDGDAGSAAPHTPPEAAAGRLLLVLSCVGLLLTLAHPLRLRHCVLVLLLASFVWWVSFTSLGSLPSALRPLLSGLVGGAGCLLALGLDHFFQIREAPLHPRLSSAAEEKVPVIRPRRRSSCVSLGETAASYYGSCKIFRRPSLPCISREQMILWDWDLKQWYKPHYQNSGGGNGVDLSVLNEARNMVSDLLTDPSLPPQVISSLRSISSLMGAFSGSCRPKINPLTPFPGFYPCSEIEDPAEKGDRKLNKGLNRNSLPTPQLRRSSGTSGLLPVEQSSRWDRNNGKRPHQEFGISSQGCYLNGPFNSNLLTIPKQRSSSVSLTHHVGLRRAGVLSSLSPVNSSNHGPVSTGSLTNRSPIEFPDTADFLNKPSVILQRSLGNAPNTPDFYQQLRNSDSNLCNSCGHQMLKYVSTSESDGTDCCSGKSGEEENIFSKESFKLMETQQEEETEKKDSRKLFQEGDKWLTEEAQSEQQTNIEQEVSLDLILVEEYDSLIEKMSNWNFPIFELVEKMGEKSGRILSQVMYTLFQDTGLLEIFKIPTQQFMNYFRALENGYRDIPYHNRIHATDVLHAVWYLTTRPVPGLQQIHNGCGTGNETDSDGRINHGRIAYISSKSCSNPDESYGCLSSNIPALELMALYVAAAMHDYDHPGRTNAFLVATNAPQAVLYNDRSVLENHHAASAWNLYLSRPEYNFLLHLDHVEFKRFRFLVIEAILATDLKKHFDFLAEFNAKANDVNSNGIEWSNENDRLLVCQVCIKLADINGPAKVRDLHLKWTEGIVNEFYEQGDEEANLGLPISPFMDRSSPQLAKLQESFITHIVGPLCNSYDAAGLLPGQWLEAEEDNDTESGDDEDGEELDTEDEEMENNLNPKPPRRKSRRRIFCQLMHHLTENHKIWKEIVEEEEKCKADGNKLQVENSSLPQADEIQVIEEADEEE
T7 sequence (Q9Y233 1-779 isoform Q9Y233-1): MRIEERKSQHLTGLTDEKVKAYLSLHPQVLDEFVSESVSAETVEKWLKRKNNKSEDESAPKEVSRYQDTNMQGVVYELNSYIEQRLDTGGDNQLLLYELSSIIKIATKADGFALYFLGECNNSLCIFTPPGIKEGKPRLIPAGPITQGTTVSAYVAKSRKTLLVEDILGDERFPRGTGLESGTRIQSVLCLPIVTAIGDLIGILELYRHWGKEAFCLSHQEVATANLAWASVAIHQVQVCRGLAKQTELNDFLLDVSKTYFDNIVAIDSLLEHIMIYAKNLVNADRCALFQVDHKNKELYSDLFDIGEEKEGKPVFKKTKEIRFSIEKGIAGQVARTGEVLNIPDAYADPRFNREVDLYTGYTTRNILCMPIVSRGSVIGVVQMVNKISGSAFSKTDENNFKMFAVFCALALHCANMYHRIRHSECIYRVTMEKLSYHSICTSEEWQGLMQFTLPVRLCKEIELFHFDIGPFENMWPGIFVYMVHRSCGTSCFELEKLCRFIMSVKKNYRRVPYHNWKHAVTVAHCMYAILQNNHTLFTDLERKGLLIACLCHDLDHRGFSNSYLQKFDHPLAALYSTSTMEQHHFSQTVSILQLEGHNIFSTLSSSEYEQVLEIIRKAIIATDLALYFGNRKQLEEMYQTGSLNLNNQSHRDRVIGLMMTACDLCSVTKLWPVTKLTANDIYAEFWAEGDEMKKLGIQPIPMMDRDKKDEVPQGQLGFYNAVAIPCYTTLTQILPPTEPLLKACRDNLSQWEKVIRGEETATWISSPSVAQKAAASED
Chain of PDE4B (Q07343 212-736 limits assumed): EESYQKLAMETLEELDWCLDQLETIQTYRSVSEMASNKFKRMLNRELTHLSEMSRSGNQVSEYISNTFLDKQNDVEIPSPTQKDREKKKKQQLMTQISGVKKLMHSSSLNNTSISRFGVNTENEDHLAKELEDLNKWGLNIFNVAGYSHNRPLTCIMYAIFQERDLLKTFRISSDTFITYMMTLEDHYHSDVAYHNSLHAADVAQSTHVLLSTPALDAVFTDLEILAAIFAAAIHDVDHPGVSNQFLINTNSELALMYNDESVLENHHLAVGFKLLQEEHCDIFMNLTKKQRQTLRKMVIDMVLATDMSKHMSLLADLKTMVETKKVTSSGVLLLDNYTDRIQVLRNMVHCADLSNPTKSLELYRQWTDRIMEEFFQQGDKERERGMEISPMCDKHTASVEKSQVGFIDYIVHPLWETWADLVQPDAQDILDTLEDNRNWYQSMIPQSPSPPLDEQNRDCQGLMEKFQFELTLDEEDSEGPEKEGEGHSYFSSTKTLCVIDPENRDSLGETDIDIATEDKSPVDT

The term IC50 denotes the concentration that gives 50% inhibition. With `N#Cc1c(Nc2ccc(F)cc2)nc(CC2CCCC2)[nH]c1=O` [Example 1, 2-(Cyclopentylmethyl)-4-[(fluorophenyl)amino]6-oxo-1,6-dihydro-5-pyrimidinecarbonitrile], the IC50 in [1] stood at 0.075 µM.
On to `Cc1ccncc1Nc1nc(CC2CCCCC2)[nH]c(=O)c1C#N` [Example 3, 2-(Cyclohexylmethyl)-4-[(4-methyl-3-pyridinyl)amino]-6-oxo-1,6-dihydro-5-pyrimidinecarbonitrile], for which the IC50 was 1.4 µM in test [2]; greater than 4 µM in test [3]; greater than 4 µM in test [4]; greater than 4 µM in test [5]; greater than 4 µM in test [6]; greater than 4 µM in [7]. Also, the IC50 in [8] and in test [9] was greater than 4 µM throughout.
For the molecule `Cc1c(F)cccc1Nc1nc(CC2CCCC2)[nH]c(=O)c1C#N` [Example 7, 2-(Cyclopentylmethyl)-4-[(3-fluoro-2-methylphenyl)amino]-6-oxo-1,6-dihydro-5-pyrimidinecarbonitrile], the IC50 in [1] was 0.054 µM.
Turning to `CCC(C)Cc1nc(Nc2ccccc2C)c(C#N)c(=O)[nH]1` (stereo not drawn) [Example 14, 2-(2-Methylbutyl)-4-[(2-methylphenyl)amino]-6-oxo-1,6-dihydro-5-pyrimidinecarbonitrile], in [1], the IC50 is 0.075 µM.
Same read-out and setting: to `Cc1ccc(F)cc1Nc1nc(CC2CCCC2)[nH]c(=O)c1C#N` [Example 23] belongs 0.087 µM.
For the molecule `CC(C)Cn1c(=O)n(C)c(=O)c2[nH]cnc21` [IBMX], in test [10], the “inhibition of murine PDE9A” value was “not inhibited”. The “inhibition of isolated human PDE9A” value in test [11] was “no inhibition”.
In the case of `CC(=O)Nc1ccc(-c2c[nH]c(=O)cn2)cc1` [SKF94120], the “inhibition of isolated human PDE9A” value in test [11] is reported as “no inhibition”.
As for `OCCN(CCO)c1nc(N2CCCCC2)c2nc(N(CCO)CCO)nc(N3CCCCC3)c2n1` [dipyridamole], in test [11], the “inhibition of isolated human PDE9A” value was “no inhibition”.
Take `COc1ccc(C2CNC(=O)C2)cc1OC1CCCC1` (stereo not drawn) [rolipram]: the “inhibition of isolated human PDE9A” value in test [11] was “no inhibition”.
Turning to `CCOC(=O)C1=C[C@]2(CC)CCCN3CCc4c(n1c1ccccc41)[C@@H]32` [vinpocetine], in test [11], the “inhibition of isolated human PDE9A” value is “no inhibition”.
